{"source": "ChEMBL document CHEMBL1150570", "about": "“Five novel neuroprotective triterpene esters of Ulmus davidiana var. japonica” (2001)"}
{"experiment": "Neuroprotective activity against glutamate-induced toxicity in Sprague-Dawley rat cortical cells assessed as cell viability at 5 uM pretreated 1 hr before glutamate challenge by LDH release assay", "type": "functional", "settings": "read-out: Activity", "units": {"viability at 5 µM": "%"}}
{"smiles": "C=C(C)[C@@H]1CC[C@]2(C)C[C@H](OC(=O)c3ccc(O)cc3)[C@]3(C)[C@H](C[C@@H](OC(=O)c4ccc(O)c(OC)c4)[C@@H]4[C@@]5(C)CC[C@H](O)C(C)(C)[C@@H]5CC[C@]43C)[C@@H]12", "note": "[ULMICIN C]", "viability at 5 µM": 49.2}
{"smiles": "C=C(C)[C@@H]1CC[C@]2(C)C[C@H](O)[C@]3(C)[C@H](C[C@@H](OC(=O)c4ccc(O)c(OC)c4)[C@@H]4[C@@]5(C)CC[C@H](O)C(C)(C)[C@@H]5CC[C@]43C)[C@@H]12", "note": "[ULMICIN A]", "viability at 5 µM": 48}
{"smiles": "C=C(C)[C@@H]1CC[C@]2(C)C[C@H](OC(=O)c3ccc(O)c(OC)c3)[C@]3(C)[C@H](C[C@@H](OC(=O)c4ccc(O)c(OC)c4)[C@@H]4[C@@]5(C)CC[C@H](O)C(C)(C)[C@@H]5CC[C@]43C)[C@@H]12", "note": "[ULMICIN D]", "viability at 5 µM": 44.2}
{"smiles": "C=C(C)[C@@H]1CC[C@]2(C)C[C@H](OC(=O)c3ccccc3)[C@]3(C)[C@H](C[C@@H](OC(=O)c4ccc(O)c(OC)c4)[C@@H]4[C@@]5(C)CC[C@H](O)C(C)(C)[C@@H]5CC[C@]43C)[C@@H]12", "note": "[ULMICIN E]", "viability at 5 µM": 41}
{"smiles": "C=C(C)[C@@H]1CC[C@]2(C)C[C@H](O)[C@]3(C)[C@H](C[C@@H](OC(=O)c4ccc(O)cc4)[C@@H]4[C@@]5(C)CC[C@H](O)C(C)(C)[C@@H]5CC[C@]43C)[C@@H]12", "note": "[ULMICIN B]", "viability at 5 µM": 51.2}
